# PMC5454592, “Pharmacological and Toxicological Properties of the Potent Oral γ-Secretase Modulator BPN-15606” (The Journal of Pharmacology and Experimental Therapeutics, 2017)
# Like-named read-outs stand apart in the source and are kept apart here.
# Columns and labels:
# Aβ42 and Aβ40 levels [1] = assay: Repeat-dose (7-day) efficacy study in mice; type: in vivo, C57BL/6J mice
# Protocol: Male C57BL/6J mice (n = 10/dose level) and male Sprague–Dawley rats (n = 14/dose level) were administered either vehicle (80% polyethylene glycol 400 v/v; 20% sterile water v/v and 0.1% Tween 20 v/v) or BPN-15606 (10, 25, and 50 mg/kg) once daily po for 7 consecutive days (mice) or 5, 25, and 50 mg/kg once daily po for 9 consecutive days (rats). […] Animals were sacrificed 4 hours following the dosing on day 7 of the 7-day oral treatment course (mice) and on day 9 of the 9-day oral treatment course (rats). Plasma and brain extracts were prepared (mice and rats); CSF was aspirated from the cisterna magnum with minimal to no blood contamination (rats only); and tissues were frozen at −70°C. Aβ peptides were quantitated in brain extracts and plasma (mice) or CSF and plasma (rats), as described previously, using Meso Scale multiplex kits and the Meso Scale Sector Imager 6000 ([Kounnas et al., 2010]). Statistical analysis was performed using GraphPad Prism software, and results are expressed as mean ± S.E.M. Analysis of variance was used to detect a significant effect. Drug levels of BPN-15606 were measured in plasma and brain extracts using the bioanalytical methods detailed above.
# Aβ neuritic plaques = assay: Chronic repeat-dose efficacy in PSAPP transgenic mice (Thioflavin S plaque load); type: in vivo
# Protocol: Thirty-five female double-transgenic mice, model presenilin amyloid precursor protein ([Jankowsky et al., 2004]), purchased from The Jackson Laboratory (Bar Harbor, ME) [B6.C3-Tg (APPswe, PSEN1dE9) 85Dbo/Mmjax, stock no. 0034829] and then bred in-house, were used in the study at 90 days of age. The mice were housed in a temperature-controlled room at a constant 22°C in a 12:12-hour light/dark cycle (lights off at 18:00), with food and water available ad libitum. Age-matched mice were housed by treatment group in groups of two to four per cage. All experimental procedures were reviewed and approved by Institutional Animal Care and Use Committee at University of California, San Diego. Subjects were randomly assigned to either the drug group (BPN-15606) or vehicle, with individual groups ranging from 9 to 10 mice. Mice were treated for 6 months with BPN-15606 at a dose of 10 mg/kg/d. For the drug administration, BPN-15606 was milled into standard rodent chow, processed by Research Diets (New Brunswick, NJ). All animals were weighed three times weekly to assess any adverse effects on normal weight gain during the 6-month treatment period. Food consumption was determined by weighing the metal cage, including the chow, to the nearest 0.1 g.
# To determine Aβ fibril plaque load, floating coronal sections from AD and wild-type mice, n = 4 for each group, were washed in miliQ water and mounted on Fisherbrand Superfrost Plus microscope slides, before being processed for 1% (w/v) Thioflavin S staining. All images were taken with Leica (Mannheim, Germany) fluorescence microscope at 5× and with the same exposure across all images. The percent plaque within specified areas of a series of hippocampal and frontal cortex sections was quantified using ImageJ software from National Institutes of Health. Images were converted to 8-bit grayscale, and area of interest was traced and determined. Brightness and B/W threshold were adjusted appropriately and consistently across all images. The area of plaque particles within the area of interest was obtained, and the percent plaque was calculated. […]
# [2] = system: Notch proteolysis by γ-secretase; assay: Notch assay (Myc-tagged Notch NΔE in H4-APP751 neuroglioma cells); type: cell-based
# Protocol: Notch assays were carried out as described previously ([Wagner et al., 2014]).
# [3] = Toxicokinetics in rats (7-day po); type: in vivo; settings: male, Sprague-Dawley, rat, plasma; for MRT last: day 1, read-out: mean residence time to the last time point
# Protocol: Data were subjected to noncompartmental analysis using WinNonlin Phoenix Model 200 (for extravascular administration) or Model 201 (for i.v. bolus administration) and the sparse sampling feature; a uniform weighting factor was applied to each data set. Time to maximum plasma concentration (Tmax) and maximum plasma concentration (Cmax) values were determined directly from the data. Area under the plasma concentration–time curve to the last time point (AUClast) values were calculated using the log/linear trapezoidal (i.v. dose) or linear up/log down trapezoidal (po dose). Values were calculated using the plasma data from composite groups. The dose administered was input to the program as mg/kg, and as a result no additional corrections for individual body weights of the animals were necessary. The following parameters and constants were determined for the i.v. and po groups: observed Cmax, Tmax, AUClast, area under the plasma concentration–time curve extrapolated to infinity, terminal phase elimination half-life, and mean residence time to the last time point. The volume of distribution at steady state and clearance were calculated using the i.v. group data. Bioavailability after oral administration was calculated using the AUClast values for both the i.v. and po groups.
# The objectives of this toxicity study were to determine maximum tolerated dose (MTD), characterize the potential toxicity, and calculate toxicokinetic parameters of BPN-15606 in adult male Sprague–Dawley rats (8–10 weeks of age) following daily po dose administration for 7 consecutive days, and to evaluate its potential to damage chromosomes or cause mitotic spindle abnormalities in vivo, as measured by the incidence of micronucleus formation in RNA-containing erythrocytes (bone marrow micronucleus assay). An overview of the study design is presented in Supplemental Table 8. Male rats were administered BPN-15606 po for 7 consecutive days at 30, 100, or 300 mg/kg (groups 2, 3, and 4). A control group (group 1) was given vehicle, 15% Labrasol/85% sterile water, at an equivalent dose volume (10 ml/kg). A 375 mg/kg dose (group 5) was included for determination of day 1 plasma drug levels. Clinical observations were recorded twice daily.
# Aβ42 and Aβ40 levels [4] = assay: Acute single-dose pharmacodynamics in mice; type: in vivo, C57BL/6J mice; settings: single oral dose 25 mg/kg, C57BL/6 mice
# Protocol: Male C57BL/6J mice (n = 5 per group) were administered a single dose of either vehicle (80% polyethylene glycol 400 v/v; 20% sterile water v/v and 0.1% Tween 20 v/v) or BPN-15606 (25 mg/kg) by po and sacrificed at 0.5, 1, 2, 4, 8, 12, and 24 hours following the dosing. Plasma and brain extracts were prepared, and Aβ peptides were quantitated as described previously ([Kounnas et al., 2010]). Statistical analysis was performed as described above for the repeat dosing studies.
# [5] = 10 mg/kg/d in chow for 6 months
structure (smiles),measurement,setting,value
"COc1nc(-c2cc(C)c(N[C@@H](C)c3ccc(F)cc3)nn2)ccc1-n1cnc(C)c1 [BPN-15606, (S)-N-(1-(4-fluorophenyl)ethyl)-6-(6-methoxy-5-(4-methyl-1H-imidazol-1-yl)pyridin-2-yl)-4-methylpyridazin-3-amine]",lowering of brain Aβ42 levels,"Aβ42 and Aβ40 levels [1]; mice, 10 mg/kg",~40%
same,lowering of brain Aβ42 levels,"Aβ42 and Aβ40 levels [1]; mice, 25 mg/kg",70–75%
same,lowering of plasma Aβ42,"Aβ42 and Aβ40 levels [1]; mice, 25 mg/kg",> 90%
same,clinical observations,"Aβ42 and Aβ40 levels [1]; mice, 10, 25, 50 mg/kg po daily for 7 days",all animals appeared normal throughout the study
same,necropsy findings at end of study,Aβ neuritic plaques; 10 mg/kg/d for 6 months,no significant adverse findings
same,"accumulation of Aβ neuritic plaques in cortex (Thioflavin S, densitometry)",Aβ neuritic plaques; [5],significantly reduced accumulation of Aβ neuritic plaques
same,"accumulation of Aβ neuritic plaques in hippocampus (Thioflavin S, densitometry)",Aβ neuritic plaques; [5],significantly reduced accumulation of Aβ neuritic plaques
same,Notch proteolysis,"[2]; H4-APP751 neuroglioma cells transfected with Myc-tagged Notch (NΔE) construct, Fig. 3",does not inhibit Notch proteolysis
same,Notch cleavage,[2]; doses as high as 25 μM,does not affect Notch cleavage
same,Tmax,"[3]; 30 mg/kg, rats, 30 mg/kg, day 1, read-out: mean Tmax",13.3 h
same,Tmax,"[3]; 30 mg/kg, rats, 30 mg/kg, day 7, read-out: mean Tmax",6.7 h
same,Tmax,"[3]; rats po, depending on dose, read-out: Tmax for individual animals",4 to 24 h
same,MRT last,"[3]; rats, 30 mg/kg",9.1 h
same,MRT last,"[3]; rats, 100 mg/kg",13.6 h
same,Tmax,"[3]; rats, 100 and 300 dose groups, day 1, read-out: mean Tmax (time to the peak plasma drug level)",18.7 h
same,duration of effect on brain and plasma Aβ42 and Aβ40 levels,Aβ42 and Aβ40 levels [4],≥ 24 h
same,onset of effect on brain and plasma Aβ42 and Aβ40 levels,Aβ42 and Aβ40 levels [4],30 to 60 min
